Measurements published in ChEMBL document CHEMBL2074481, “Regulation of rat multidrug resistance protein 2 by classes of prototypical microsomal enzyme inducers that activate distinct transcription pathways” (Toxicol Sci, 2002).

Molecular target: ATP-binding cassette sub-family C member 2 (Rattus norvegicus, UniProt Q63120)
Assay: TP_TRANSPORTER: Western in vivo, liver of SD rat
Type: functional, organism-based, Sprague-Dawley

ATP-binding cassette sub-family C member 2, sequence (Q63120 whole entry): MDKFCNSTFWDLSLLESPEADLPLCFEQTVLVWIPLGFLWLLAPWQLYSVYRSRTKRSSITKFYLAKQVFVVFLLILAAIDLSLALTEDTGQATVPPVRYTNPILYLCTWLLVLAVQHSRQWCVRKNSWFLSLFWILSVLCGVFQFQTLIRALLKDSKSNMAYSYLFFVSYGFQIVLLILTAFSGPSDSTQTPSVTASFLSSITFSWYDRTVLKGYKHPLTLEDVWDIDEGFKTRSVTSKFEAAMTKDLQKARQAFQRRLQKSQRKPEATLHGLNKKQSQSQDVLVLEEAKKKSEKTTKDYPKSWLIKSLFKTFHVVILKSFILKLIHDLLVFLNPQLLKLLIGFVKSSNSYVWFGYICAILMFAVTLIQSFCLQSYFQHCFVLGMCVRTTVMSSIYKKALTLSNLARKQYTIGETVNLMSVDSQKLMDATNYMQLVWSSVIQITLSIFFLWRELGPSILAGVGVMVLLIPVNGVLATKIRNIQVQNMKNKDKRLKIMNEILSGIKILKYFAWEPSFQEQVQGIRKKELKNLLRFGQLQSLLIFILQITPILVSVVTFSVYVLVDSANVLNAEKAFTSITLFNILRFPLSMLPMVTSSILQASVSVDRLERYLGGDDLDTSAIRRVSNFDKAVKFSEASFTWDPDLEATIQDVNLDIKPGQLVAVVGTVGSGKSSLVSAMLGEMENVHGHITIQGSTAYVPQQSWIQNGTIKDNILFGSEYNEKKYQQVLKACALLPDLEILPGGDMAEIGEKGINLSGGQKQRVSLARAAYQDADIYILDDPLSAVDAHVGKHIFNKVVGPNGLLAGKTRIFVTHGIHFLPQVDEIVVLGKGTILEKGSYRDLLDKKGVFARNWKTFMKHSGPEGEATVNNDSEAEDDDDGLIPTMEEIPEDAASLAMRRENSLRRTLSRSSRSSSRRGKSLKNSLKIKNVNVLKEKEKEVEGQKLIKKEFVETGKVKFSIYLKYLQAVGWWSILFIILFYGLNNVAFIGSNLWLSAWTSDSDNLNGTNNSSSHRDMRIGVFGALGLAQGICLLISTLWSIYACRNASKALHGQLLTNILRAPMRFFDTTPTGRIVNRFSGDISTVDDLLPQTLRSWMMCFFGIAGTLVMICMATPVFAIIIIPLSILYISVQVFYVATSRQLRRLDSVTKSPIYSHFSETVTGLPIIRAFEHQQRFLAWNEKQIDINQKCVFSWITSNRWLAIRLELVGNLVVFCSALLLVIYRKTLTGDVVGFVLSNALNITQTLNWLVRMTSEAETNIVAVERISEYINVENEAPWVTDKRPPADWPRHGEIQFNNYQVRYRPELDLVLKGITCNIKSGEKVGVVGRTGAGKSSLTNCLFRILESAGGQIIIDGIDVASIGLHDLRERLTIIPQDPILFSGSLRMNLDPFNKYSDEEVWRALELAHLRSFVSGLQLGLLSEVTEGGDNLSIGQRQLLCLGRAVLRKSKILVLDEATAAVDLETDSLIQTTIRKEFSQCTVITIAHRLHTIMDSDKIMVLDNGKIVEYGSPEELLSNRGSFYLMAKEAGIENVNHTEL

## CCOc1ccc2c(c1)C(C)=CC(C)(C)N2 [E324]
  Activity: inducer [+]

## CC(=O)S[C@@H]1CC2=CC(=O)CC[C@]2(C)[C@H]2CC[C@@]3(C)[C@@H](CC[C@@]34CCC(=O)O4)[C@H]12 [SPIRONOLACTONE]
  Activity: inducer [+]
